Source: patent publication US20240391930A1, “SPIROCYCLIC BICYCLIC MODULATORS OF CHOLESTEROL BIOSYNTHESIS AND THEIR USE FOR PROMOTING REMYELINATION” (GENENTECH, INC., priority 2021, published 2024)

Legend:
[1] = system: zymostenol accumulation in EpiSC-derived OPCs (EBP); assay: GC/MS-based sterol profiling (zymostenol accumulation); format: cell-based; conditions: Mus musculus, 24 hours, 8 doses from 0.15 nM to 333 nM, read-out: Zymostenol GCMS EC50
Description: (§1) To assess effects of treatments on OPCs, all treatments were assayed in two or more independent platings of epiblast stem cell-derived OPCs (EpiSC). EpiSC-derived OPCs were obtained using in vitro differentiation protocols and culture conditions described previously (Najm et al, 2011, Nature Methods). OPCs were expanded and frozen down in aliquots. OPCs were thawed into growth conditions for at least one passage before use in further assays.
Sterols were monitored using a modified Folch wash protocol (Hubler et al, 2018, Nature). EpiSC-derived OPCs were plated at 100,000 cells per well in PO- and laminin-coated 96-well plates in N2B27 media without growth factors. After 24 hours, cells were rinsed with saline and plates were frozen. Cholesterol-d7 standard was then added to each well before drying under nitrogen stream and derivatization with 55 μl of bis(trimethylsilyl) trifluoroacetamide. After derivatization, 2 μl were analyzed by gas chromatography/mass spectrometry using an Agilent 5973 Network Mass Selective Detector equipped with a 6890 gas chromatograph system and a HP-5MS capillary column (30 m×0.25 mm×[…]). Samples were analyzed in full scan mode using electron impact ionization; ion fragment peaks were integrated to calculate sterol abundance, and quantitation was relative to cholesterol-d7. The following ion fragments were used to quantitate each metabolite: cholesterol-d7 (465), FF-Mas (482), cholesterol (368), zymostenol (458), zymosterol (456), Desmosterol (456, 343), 7-dehydrocholesterol (456, 325), lanosterol (393), lathosterol (458), 14-dehydrozymostenol (456, 351). […] All standards were obtained from Avanti Polar Lipids unless otherwise indicated. Calibration curves were generated by injecting varying concentrations of sterol standards and maintaining a fixed amount of cholesterol-D7. For normalized zymostenol accumulation results, the total amount of zymostenol measured after drug treatment was divided by the total amount of zymostenol accumulated after 24 hr treatment with 100 nM positive control reference.

[2] = biological target: T1, human emopamil binding protein and human 7-dehydrocholesterol reductase (hEBP-DHCR7) (Homo sapiens, UniProt Q15125); assay: hEBP-DHCR7 radioligand filtration binding assay; conditions: membranes of HEK293 co-expressing hEBP and DHCR7; [3H] 2-thia-6-azaspiro[3.4]octane radioligand; 8 doses 0.06 to 5000 nM
T1 construct: expressed in transfected cells; host or cells: HEK 293 cells, transient transfection with 2 DNA constructs
Description: Membrane Preparation: human emopamil binding protein and human 7-dehydrocholesterol reductase co-expressing cells were generated by transient transfecting host human embryonic kidney (HEK) 293 cells with 2 DNA constructs containing each protein's coding sequence. Cells were suspension cultured at 37° C. with 5% CO2 in […] 293 Expression Medium (Thermofisher). Whole cell membrane was prepared by harvesting the cell pellet, adding cold membrane buffer (50 mM Tris, pH7.5, lx Roche COMPLETE EDTA-free protease inhibitor cocktail) 10 times volume of the cell pellets weight, lysing cell pellet on ice by using Dounce homogenizer, spinning at 200 g 4° C. for 15 min, collecting supernatant and spinning again at 25000 g 4° C. for 50 min, transferring pellet to Dounce homogenizer, re-suspending pellet by homogenizing in membrane buffer on ice to reach ˜25 mg/mL, then keeping whole cell membrane aliquots at −80° C.
Compounds were prepared in a 96-well U bottom plate using an Echo550 machine and 10 mM compound DMSO stock solution, followed by an 8-dose 5-fold serial dilutions protocol with final testing compound concentration ranging from 0.06 to 5000 nM, with DMSO back fill to 100 nL/well and n=2. […] The UniFilter-96 GF/B plates were pre-treated by adding 50 µl/well of 0.3% (v/v) PEI to UniFilter-96 GF/B plates. The plates were sealed and incubated at 4° C. for 3 hrs. Then, the plates were washed with ice-cold assay buffer 3 times. The radioligand binding assay was prepared by adding assay buffer diluted hEBP-DHCR7 membrane at 66.7 μg/ml×150 l/well into the 96-well compound plate to reach 10 μg membrane per well. Then, the assay buffer diluted [3H]—((S)-6-(2-Methyl-3-(6-(trifluoromethyl)pyridin-3-yl)propyl)-2-thia-6-azaspiro[3.4]octane 2,2-dioxide or (R)-6-(2-Methyl-3-(6-(trifluoromethyl)pyridin-3-yl)propyl)-2-thia-6-azaspiro[3.4]octane 2,2-dioxide) was added at 25 nM×50 l/well. Following this, the plate was centrifuged at 1000 rpm for 30 secs. The plate was then sealed and agitated at 600 rpm at 22° C. for 5 min, and then incubated at 22° C. for 3 hrs. The incubation was stopped by transferring the binding solution to the pre-treated UniFilter-96 GF/B plate, vacuum filtrated, and then washed four times with ice-cold assay buffer. Following this, the plates were dried at 37° C. for 45 min. The plates were then sealed at the bottom. 40 µl/well of scintillation cocktail was added to the plates. A MicroBeta2 microplate counter was then used to read the plate and analyze the data. For reference and test compounds, the results are expressed as % Inhibition, using the normalization equation: N=100−100×(U−C2)/(C1−C2), where U is the unknown value, C1 is the average of high controls, and C2 is the average value of low controls. The IC50 was determined by fitting percentage of inhibition as a function of compound concentrations with Hill equation using XLfit. Results are expressed as hEBP-DHCR7 Ki (uM) in Table 4. Ki was calculated as described above; * indicates isolated isomer or isomers, but that the stereochemistry has not been assigned.

EpiSC-derived OPCs = assay: In vitro phenotypic screening of OPCs (MBP high-content imaging); format: cell-based; conditions: Mus musculus, 72 h; percentage of MBP-positive oligodendrocytes, 3 days, 0.5 nM to 1000 nM; read-out: OPC EC50
Description: as §1
EpiSC-derived OPCs were grown and expanded in poly-L-ornithine (PO) and laminin-coated flasks in N2B27 media (DMEM/F12 (Gibco), N2-MAX (R&D Systems), B-27 (ThermoFisher), and GlutaMax (Gibco)) supplemented with FGF2 ([…], R&D systems, 233-FB-025) and PDGF-AA ([…], R&D systems, 233-AA-050) before harvesting for experiments. The cells were seeded onto poly-L-ornithine or poly-D-lysine coated CellCarrier Ultra plates (PerkinElmer) coated with laminin (Sigma, L2020) at a density of 150,000/cm^2 in N2B27 media without growth factors. For dose-response testing, a 1000× compound stock in dimethyl sulphoxide (DMSO) was added to assay plates, resulting in 8-point dose curves with final concentrations between 1000 nM and 0.5 nM. Positive controls and DMSO vehicle controls were included in each assay plate. Cells were incubated under standard conditions (37° C., 5% CO2) for 3 days and fixed with 4% paraformaldehyde (PFA) in phosphate buffered saline (PBS) for 20 min. Fixed plates were washed with PBS, permeabilized with 0.1% Triton X-100, and blocked with 10% donkey serum (v/v) in PBS for 40 min. Then, cells were labelled with MBP antibodies (Abcam, ab7349; 1:200) for 2 h at room temperature, washed with PBS, and stained with Alexa Fluor conjugated secondary antibodies (1:500) for 45 min. Nuclei were visualized by DAPI staining (Sigma; 1 μg/ml), followed by further PBS washes.
Cells and cell culture plates were imaged on the Operetta High Content Imaging and Analysis system (PerkinElmer). Analysis (PerkinElmer Harmony and Columbus software) began by identifying intact nuclei stained by DAPI. The peri-nuclear region of each cell was then cross-referenced with the […] (MBP) stain to identify oligodendrocyte nuclei, and from this the percentage of oligodendrocytes was calculated.

T1 sequence (Q15125 whole entry): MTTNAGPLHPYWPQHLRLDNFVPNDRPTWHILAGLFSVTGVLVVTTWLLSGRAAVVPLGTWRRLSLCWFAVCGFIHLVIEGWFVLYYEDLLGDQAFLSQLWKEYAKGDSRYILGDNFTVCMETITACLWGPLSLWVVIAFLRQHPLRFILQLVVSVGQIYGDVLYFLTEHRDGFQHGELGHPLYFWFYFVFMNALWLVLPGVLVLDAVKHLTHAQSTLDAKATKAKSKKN

| Compound | EC50 [1] [nM] | Ki [2] [nM] | EC50 (EpiSC-derived OPCs) [nM] |
| --- | --- | --- | --- |
| CCn1nc(-c2cncc(F)c2)cc1[C@H]1[C@@H]2C[C@H](N3CCC4(CC3)CS(=O)(=O)C4)C[C@@H]21 (single isomer, unassigned) [Compound 67*] | 37 | 171 | – |
| O=S1(=O)CC[C@]2(CCCN([C@@H]3C[C@@H]4[C@H](C3)[C@H]4c3cc(C(F)(F)F)nn3CC(F)F)C2)C1 (single isomer, unassigned) [Compound 87*] | > 330 | 94.6 | – |
| O=S1(=O)CC2(CCN([C@H]3C[C@@H]4[C@H](C3)[C@H]4c3cc(C(F)(F)F)n(CC(F)F)n3)CC2)C1 (single isomer, unassigned) [Compound 97] | 22.1 | 6.85 | – |
| CC(C)n1nc([C@H]2CC[C@@](O)(C(F)(F)F)CC2)cc1[C@H]1[C@@H]2C[C@@H](N3CCC4(C3)CS(=O)(=O)C4)C[C@@H]21 (single isomer, unassigned) [Compound 105*] | 110 | 554 | – |
| O=S1(=O)CC2(CCN([C@@H]3C[C@@H]4[C@H](C3)[C@H]4c3cc(C(F)(F)F)n(CC(F)F)n3)CC2)C1 (single isomer, unassigned) [Compound 96*] | 37.9 | 438 | – |
| CCn1nc(-c2cccnc2)cc1[C@H]1[C@@H]2C[C@@H](N3CCC4(C3)CS(=O)(=O)C4)C[C@@H]21 (single isomer, unassigned) [Compound 64*] | 44 | 203 | – |
| CCn1nc(-c2cncc(F)c2)cc1[C@H]1[C@@H]2C[C@@H](N3CCC4(CC3)CS(=O)(=O)C4)C[C@@H]21 (single isomer, unassigned) [Compound 66*] | 35 | 26.4 | – |
| CCn1nc(-c2ccccn2)cc1[C@H]1[C@@H]2C[C@@H](N3CCC4(C3)CS(=O)(=O)C4)C[C@@H]21 [Compound 72, 6-((1R,3s,5S,6r)-6-(1-Ethyl-3-(pyridin-2-yl)-1H-pyrazol-5-yl)bicyclo[3.1.0]hexan-3-yl)-2-thia-6-azaspiro[3.4]octane 2,2-dioxide] | 47 | 303 | – |
| O=S1(=O)CC2(CCN([C@H]3C[C@@H]4[C@H](C3)[C@H]4c3cc(C(F)(F)F)nn3CC(F)F)C2)C1 (single isomer, unassigned) [Compound 91*] | 24 | 16.3 | – |
| O=S1(=O)CC[C@]2(CCCN([C@H]3C[C@@H]4[C@H](C3)[C@H]4c3cc(C(F)(F)F)nn3CC(F)F)C2)C1 (single isomer, unassigned) [Compound 89*] | 270 | 128 | – |
| CC(C)(C)n1nc(C(F)(F)F)nc1[C@H]1[C@@H]2C[C@H](N3CCC4(C3)CS(=O)(=O)C4)C[C@@H]21 (single isomer, unassigned) [Compound 78*] | 53 | 33.6 | – |
| CC(C)n1nc([C@H]2CC[C@@H](C(F)(F)F)CC2)cc1[C@H]1[C@@H]2C[C@@H](N3CCC4(C3)CS(=O)(=O)C4)C[C@@H]21 (single isomer, unassigned) [Compound 106] | 14.6 | 13.1 | – |
| CC(C)(C)n1nc(C(F)(F)F)nc1[C@H]1[C@@H]2C[C@@H](N3CCC4(C3)CS(=O)(=O)C4)C[C@@H]21 (single isomer, unassigned) [Compound 77*] | 330 | 93 | – |

The next compounds have a lower EC50 [1] than those just listed; values first:

| EC50 [1] [nM] | Ki [2] [nM] | EC50 (EpiSC-derived OPCs) [nM] | Compound |
| --- | --- | --- | --- |
| 7.7 | 18.9 | – | O=S1(=O)CC[C@@]2(CCCN([C@H]3C[C@@H]4[C@H](C3)[C@H]4c3cc(C(F)(F)F)nn3CC(F)F)C2)C1 (single isomer, unassigned) [Compound 88*] |
| 3.9 | – | 13 | CC(C)n1nc(-c2cccc(C(F)(F)F)c2)nc1[C@H]1[C@@H]2C[C@H](N3CCC4(CC3)CS(=O)(=O)C4)C[C@@H]21 [Compound 74, 7-((1R,3r,5S,6r)-6-(1-isopropyl-3-(3-(trifluoromethyl)phenyl)-1H-1,2,4-triazol-5-yl)bicyclo[3.1.0]hexan-3-yl)-2-thia-7-azaspiro[3.5]nonane 2,2-dioxide] |
| 2.4 | 10.3 | – | CC(C)n1nc(-c2cccc(C(F)(F)F)c2)nc1[C@H]1[C@@H]2C[C@H](N3CCC4(C3)CS(=O)(=O)C4)C[C@@H]21 [Compound 52, 6-((1R,3r,5S,6r)-6-(1-isopropyl-3-(3-(trifluoromethyl)phenyl)-1H-1,2,4-triazol-5-yl)bicyclo[3.1.0]hexan-3-yl)-2-thia-6-azaspiro[3.4]octane 2,2-dioxide] |
| 3 | – | 3.3 | CC(C)(C)n1nc(C(F)(F)F)cc1[C@H]1[C@@H]2C[C@@H](N3CCC4(CC3)CS(=O)(=O)C4)C[C@@H]21 (single isomer, unassigned) [Compound 55] |
| 2.2 | 11.8 | – | CC(C)(C)n1nc(-c2cccc(C(F)(F)F)c2)nc1[C@H]1[C@@H]2C[C@H](N3CCC4(C3)CS(=O)(=O)C4)C[C@@H]21 (single isomer, unassigned) [Compound 76] |
| 13 | 21.2 | – | O=S1(=O)CC[C@@]2(CCCN([C@@H]3C[C@@H]4[C@H](C3)[C@H]4c3cc(C(F)(F)F)nn3CC(F)F)C2)C1 (single isomer, unassigned) [Compound 86*] |
